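Five concentrations, 48 hours, 96-well plates. The concentration for 50% growth inhibition is given as GI50. TGI is the concentration that stops growth completely.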
Key:
Experiment in all cases: NCI anticancer screen, dose series, 48 h
[1] = tested on: NCI/ADR-RES ovarian
[2] = tested on: MDA-MB-231 breast
[3] = tested on: HCT-116 colon
[4] = tested on: OVCAR-3 ovarian
[5] = tested on: HCT-15 colon
[6] = tested on: 786-0 renal
[7] = tested on: SNB-19 CNS
[8] = tested on: SW-620 colon
[9] = tested on: SF-295 CNS
[10] = tested on: UO-31 renal
[11] = tested on: EKVX NSCLC
[12] = tested on: M14 melanoma
[13] = tested on: SF-268 CNS
[14] = tested on: SK-MEL-5 melanoma
[15] = tested on: TK-10 renal
[16] = tested on: PC-3 prostate
[17] = tested on: MOLT-4 leukemia
[18] = tested on: SK-MEL-2 melanoma
[19] = tested on: HOP-92 NSCLC
[20] = tested on: UACC-62 melanoma
[21] = tested on: SF-539 CNS
[22] = tested on: COLO 205 colon
[23] = tested on: OVCAR-8 ovarian
[24] = tested on: UACC-257 melanoma
[25] = tested on: K-562 leukemia
[26] = tested on: MCF7 breast
[27] = tested on: SR leukemia
[28] = tested on: HL-60(TB) leukemia
[29] = tested on: HS 578T breast
[30] = tested on: MALME-3M melanoma
[31] = tested on: DU-145 prostate
[32] = tested on: MDA-MB-435
[33] = tested on: OVCAR-5 ovarian
[34] = tested on: RPMI-8226 leukemia
[35] = tested on: BT-549 breast
[36] = tested on: NCI-H23 lung
[37] = tested on: SK-OV-3 ovarian
[38] = tested on: ACHN renal
[39] = tested on: NCI-H522 lung
[40] = tested on: IGROV1 ovarian
[41] = tested on: CCRF-CEM leukemia
[42] = tested on: CAKI-1 renal
[43] = tested on: NCI-H460 lung
[44] = tested on: T-47D breast
[45] = tested on: HT29 colon
[46] = tested on: HOP-62 NSCLC
[47] = tested on: KM12 colon
[48] = tested on: A549 NSCLC
[49] = tested on: SN12C renal
[50] = tested on: U251 CNS
[51] = tested on: NCI-H226 lung
[52] = tested on: A498 renal
[53] = tested on: HCC-2998 colon
[54] = tested on: SNB-75 CNS
[55] = tested on: RXF 393 renal
[56] = tested on: OVCAR-4 ovarian
[57] = tested on: SK-MEL-28 melanoma
[58] = tested on: LOX IMVI melanoma

With `c1ccc2c(c1)SC1=Nc3sc4ccccc4[n+]3CN12` the TGI [1] was greater than 100 µM, the TGI [2] was 49.2 µM and the TGI [3] was greater than 100 µM. The TGI [4] was 11.7 µM, the TGI [5] was greater than 100 µM and the TGI [6] was 83.7 µM. For the same compound, the TGI [7] was greater than 100 µM, the TGI [8] was greater than 100 µM and the TGI [9] was greater than 100 µM. It also gave a TGI [10] greater than 100 µM, a TGI [11] of 53.5 µM and a TGI [12] of 66.2 µM. The TGI [13] was 49.7 µM, the TGI [14] was 10.9 µM and the TGI [15] was 76.6 µM. It also gave a TGI [16] greater than 100 µM, a TGI [17] of 39 µM and a TGI [18] of 28.7 µM. The TGI [19] was 47.5 µM, the TGI [20] was 45.1 µM and the TGI [21] was 69 µM. It also gave a TGI [22] of 10.9 µM, a TGI [23] greater than 100 µM and a TGI [24] greater than 100 µM. It also gave a TGI [25] of 81.6 µM, a TGI [26] of 42.9 µM and a TGI [27] of 56.8 µM. For the same compound, the TGI [28] was 82.3 µM, the TGI [29] was 67.9 µM and the TGI [30] was 37.6 µM. It also gave a TGI [31] greater than 100 µM, a TGI [32] of 49.5 µM and a TGI [33] of 71.1 µM. The TGI [34] was 59.6 µM, the TGI [35] was greater than 100 µM and the TGI [36] was 59.8 µM. For the same compound, the TGI [37] was 66.8 µM, the TGI [38] was greater than 100 µM and the TGI [39] was 9.03 µM. It also gave a TGI [40] of 46.3 µM, a TGI [41] greater than 100 µM and a TGI [42] of 42.4 µM. For the same compound, the TGI [43] was 44.1 µM, the TGI [44] was 78 µM and the TGI [45] was 37.7 µM. The TGI [46] was greater than 100 µM, the TGI [47] was 29.3 µM and the TGI [48] was 25.5 µM. For the same compound, the TGI [49] was 71.1 µM and the TGI [50] was 21.6 µM.
With `CN([O-])c1nc(N(C)[O-])nc(N2CCOCC2)n1.CN([O-])c1nc(N(C)[OH2+])nc(N2CCOCC2)n1.[Fe+3]` the GI50 [51] was greater than 100 µM, the TGI [51] was greater than 100 µM and the GI50 [1] was greater than 100 µM. For the same compound, the TGI [1] was greater than 100 µM, the GI50 [2] was greater than 100 µM and the TGI [2] was greater than 100 µM. For the same compound, the GI50 [3] was 96.6 µM, the TGI [3] was greater than 100 µM and the GI50 [52] was 0.0197 µM. The TGI [52] was greater than 100 µM, the GI50 [4] was greater than 100 µM and the TGI [4] was greater than 100 µM. The GI50 [5] was greater than 100 µM, the TGI [5] was greater than 100 µM and the GI50 [53] was greater than 100 µM. It also gave a TGI [53] greater than 100 µM, a GI50 [6] greater than 100 µM and a TGI [6] greater than 100 µM. The GI50 [54] was greater than 100 µM, the TGI [54] was greater than 100 µM and the GI50 [7] was greater than 100 µM. It also gave a TGI [7] greater than 100 µM, a GI50 [8] greater than 100 µM and a TGI [8] greater than 100 µM. It also gave a GI50 [9] of 57.6 µM, a TGI [9] greater than 100 µM and a GI50 [10] greater than 100 µM. It also gave a TGI [10] greater than 100 µM, a GI50 [11] greater than 100 µM and a TGI [11] greater than 100 µM. The GI50 [12] was 41.5 µM, the TGI [12] was greater than 100 µM and the GI50 [13] was 57.4 µM. The TGI [13] was greater than 100 µM, the GI50 [14] was greater than 100 µM and the TGI [14] was greater than 100 µM. For the same compound, the GI50 [15] was greater than 100 µM, the TGI [15] was greater than 100 µM and the GI50 [16] was greater than 100 µM. The TGI [16] was greater than 100 µM, the GI50 [17] was greater than 100 µM and the TGI [17] was greater than 100 µM. The GI50 [18] was 81.8 µM, the TGI [18] was greater than 100 µM and the GI50 [19] was 0.487 µM. The TGI [19] was greater than 100 µM, the GI50 [20] was greater than 100 µM and the TGI [20] was greater than 100 µM. It also gave a GI50 [21] greater than 100 µM, a TGI [21] greater than 100 µM and a GI50 [22] greater than 100 µM. It also gave a TGI [22] greater than 100 µM, a GI50 [23] greater than 100 µM and a TGI [23] greater than 100 µM. It also gave a GI50 [55] of 68.3 µM, a TGI [55] greater than 100 µM and a GI50 [24] greater than 100 µM. It also gave a TGI [24] greater than 100 µM, a GI50 [25] of 48.6 µM and a TGI [25] greater than 100 µM. It also gave a GI50 [26] greater than 100 µM, a TGI [26] greater than 100 µM and a GI50 [28] greater than 100 µM. The TGI [28] was greater than 100 µM, the GI50 [29] was greater than 100 µM and the TGI [29] was greater than 100 µM. The GI50 [30] was 54.9 µM, the TGI [30] was greater than 100 µM and the GI50 [56] was greater than 100 µM. The TGI [56] was greater than 100 µM, the GI50 [31] was greater than 100 µM and the TGI [31] was greater than 100 µM. For the same compound, the GI50 [32] was 61.8 µM, the TGI [32] was greater than 100 µM and the GI50 [33] was greater than 100 µM. For the same compound, the TGI [33] was greater than 100 µM, the GI50 [34] was greater than 100 µM and the TGI [34] was greater than 100 µM. It also gave a GI50 [35] greater than 100 µM, a TGI [35] greater than 100 µM and a GI50 [36] greater than 100 µM. For the same compound, the TGI [36] was greater than 100 µM, the GI50 [37] was greater than 100 µM and the TGI [37] was greater than 100 µM. The GI50 [38] was greater than 100 µM, the TGI [38] was greater than 100 µM and the GI50 [57] was 84.8 µM. It also gave a TGI [57] greater than 100 µM, a GI50 [39] of 23.8 µM and a TGI [39] of 94.7 µM. For the same compound, the GI50 [40] was greater than 100 µM, the TGI [40] was greater than 100 µM and the GI50 [41] was greater than 100 µM. It also gave a TGI [41] greater than 100 µM, a GI50 [42] greater than 100 µM and a TGI [42] greater than 100 µM. The GI50 [43] was 18.3 µM, the TGI [43] was 34.4 µM and the GI50 [44] was greater than 100 µM. For the same compound, the TGI [44] was greater than 100 µM, the GI50 [45] was greater than 100 µM and the TGI [45] was greater than 100 µM. The GI50 [46] was 89.6 µM, the TGI [46] was greater than 100 µM and the GI50 [58] was 15.5 µM. The TGI [58] was 36 µM, the GI50 [47] was 57.1 µM and the TGI [47] was greater than 100 µM. The GI50 [48] was greater than 100 µM, the TGI [48] was greater than 100 µM and the GI50 [49] was greater than 100 µM. It also gave a TGI [49] greater than 100 µM, a GI50 [50] of 27.5 µM and a TGI [50] greater than 100 µM.
